From US20210228545A1, “METHODS OF TREATING CONDITIONS RELATED TO THE S1P1 RECEPTOR” (Arena Pharmaceuticals, Inc., priority 2018, published 2021)

Assays:
[1] = short-term high dose; cited from earlier work
[2] = in vivo; cited from earlier work
[3] = Phase II, relapsing-remitting multiple sclerosis; cited from earlier work
[4] = spared nerve injury model; cited from earlier work
[5] = murine; cited from earlier work
[6] = prophylactic oral 1 mg/kg, three times a week; cited from earlier work
[7] = mice; cited from earlier work
CYP2C8 = biological target: T1, CYP2C8 (Homo sapiens, UniProt P10632); assay: CYP reaction phenotyping in HLMs with selective chemical inhibitor; type: in vitro ADME
T1 construct: human liver microsomes from a pool of 200 individuals; from tissue; host or cells: human liver microsomes, pool of 200 individuals
T1 sequence (P10632 1-490): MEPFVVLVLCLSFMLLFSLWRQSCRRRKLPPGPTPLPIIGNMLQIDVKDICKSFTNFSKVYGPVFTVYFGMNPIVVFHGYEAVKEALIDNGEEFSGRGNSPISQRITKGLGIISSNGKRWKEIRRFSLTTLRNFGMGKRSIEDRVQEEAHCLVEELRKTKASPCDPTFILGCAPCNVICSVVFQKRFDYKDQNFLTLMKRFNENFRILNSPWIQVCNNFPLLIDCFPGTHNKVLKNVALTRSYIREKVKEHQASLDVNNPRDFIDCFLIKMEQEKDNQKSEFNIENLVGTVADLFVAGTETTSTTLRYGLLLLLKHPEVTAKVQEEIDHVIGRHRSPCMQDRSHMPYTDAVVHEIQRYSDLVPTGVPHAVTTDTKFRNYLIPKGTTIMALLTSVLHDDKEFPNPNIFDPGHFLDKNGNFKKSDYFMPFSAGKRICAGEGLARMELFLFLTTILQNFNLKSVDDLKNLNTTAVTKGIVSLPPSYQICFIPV

SMILES | Effect on ocular infiltrates [1] | Adverse event in clinical trials [2] | Effect on MRI lesions and clinical disease activity [3] | Effect on nociceptive behavior [4] | Effect on contact hypersensitivity [5] | Development of EAMG [6] | Effect on ovariectomy-induced osteoporosis [7] | Inhibition of conversion of Compound 1 to first oxidative metabolite (CYP2C8) | Inhibition of conversion of Compound 1 to ketone metabolite (CYP2C8) | Inhibition of conversion of Compound 1 to second oxidative metabolite (CYP2C8)
CCCCCCCCc1ccc(CCC(N)(CO)CO)cc1 [FTY720] | rapidly reduced ocular infiltrates | transient asymptomatic bradycardia | reduce the number of lesions detected by magnetic resonance imaging (MRI) and clinical disease activity | reduce the nociceptive behavior | impair initiation | completely prevented | relieved ovariectomy-induced osteoporosis |  |  | 
Cc1ccc(C)c(OCCCC(C)(C)C(=O)O)c1 [gemfibrozil] |  |  |  |  |  |  |  | 85% | 60% | 47%
